How the values were obtained:
Aβ1–42 fibrils = biological target: T1, Aβ1–42 fibrils (Homo sapiens, UniProt P05067); assay: Fluorescence binding assay of 5 with preformed Aβ1–42 fibrils; details: preformed Aβ1–42 aggregates in PBS, single site binding model
T1 construct: Commercially available amyloid peptide Aβ1-42; purchased
Description: For assessing the ability of 5 to bind Aβ plaques; preliminary binding assays with preformed Aβ1–42 fibrils were performed in PBS. […] Additionally, it is also noteworthy that no fluorescence was observed using Aβ aggregates alone in PBS following excitation at 392 nm (a negative control).
(§1) Scientific Reports Version of August 4, 2016
Preparation of Aβ fibrils.
Commercially available amyloid peptide Aβ1-42 (433 µg) was gently dissolved in PBS (1 mL, pH 7.4, 100 µM)5. The solution was incubated for 36-48 h at 37°C with continuous gentle shaking to avoid gel formation at the meniscus. The aggregated peptide suspension was stored at -80°C until needed (the […]
Binding of 5 with Aβ fibrils
In vitro binding assays to preformed fibrils were performed using literature procedures. […]
indicating binding to Aβ aggregates, similar to enhancement in fluorescence of thioflavin-T in PBS (a positive control; data not shown). Additionally, it is also noteworthy that no fluorescence was observed using Aβ aggregates alone in PBS upon excitation at 410 nm (a negative control). All measurements were made in triplicates; fluorescence of either 5 alone or fibrils at a given concentration was subtracted. […]
SI Figure 2. […] All measurements were made in triplicates; fluorescence of either 5 alone or fibrils at a given concentration was subtracted. […]

Aβ plaques = Aβ plaques (Homo sapiens, UniProt P05067); assay: Histological staining of human AD brain tissue sections
Aβ plaques, sequence (P05067 672-711 limits assumed): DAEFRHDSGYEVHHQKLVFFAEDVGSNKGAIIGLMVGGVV
Description: To further assess ability of the 5 to label Aβ plaques in human brain, staining experiments were also performed with postmortem tissues from clinically-characterized AD patients[35][36] As a positive control, a highly specific anti-Aβ antibody (10D5, Eli Lilly, Indianapolis, IN) was used to ascertain the presence of Aβ plaques (Fig. 4A), using well-established procedures for assessment of Aβ plaques in postmortem brain[37]. […] Noticeably, 5 also indicated proficient and distinct labeling of plaque and leptomeningeal vessels (cerebral amyloid angiopathy; CAA) (Fig. 4B). […] This high specificity of 5 for Aβ could be attributed to presence of a benzoselenazole ring within Fluselenamyl. Overall, the ability and sensitivity of 5 to detect diffuse plaques and specificity for AD could represent an important advancement to enable PET imaging of mildly demented individuals, prior to onset of symptoms.
as §1
µm) were cut in the coronal plane on a freezing sliding microtome and stored at -20°C. 7,8 Tissue was stained as free-floating sections. Prior to staining, tissue sections were permeabilized with PBS-Tritron-X-100 (0.25%) for 30 minutes, and then blocked with 1% non-fat dry milk in PBS-Ttiton-X-100 for 60 minutes.
Hippocampus tissue sections of APP+/-/PS1+/- and age-matched control BL/6 (WT, SI Figure 3) were incubated with fluorescent molecule 5 (100 nM dissolved in 1% ethanol in PBS) for 60 minutes, and washed 3-times with PBS-Triton-X-100.9 Thereafter, tissue sections were incubated with mouse-anti-Aβ (mHJ3.4) 7 that was directly conjugated to Alexa 568 for 90 minutes and washed 3-times with PBS-Triton-X-100.
Tissue sections were mounted onto SuperFrost Plus slides, dried overnight at room temperature, and then sealed with Fluoromount G (Southern Biotech, Birmingham, AL). […]
other neurodegenerative diseases (SI, Figure 4A & 4B). Sections were visualized, processed, and analyzed using a Pascal confocal microscope. […]

T1 sequence (P05067 672-713 limits assumed): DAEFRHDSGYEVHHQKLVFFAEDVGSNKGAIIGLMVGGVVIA

For CN(C)c1ncc(/C=C\c2nc3cc(OCCF)ccc3[se]2)cn1 [compound 5, (Z)-5-(2-(5-(2-fluoroethoxy)benzo[d][1,3]selenazol-2-yl)vinyl)-N,N-dimethylpyrimidin-2-amine], the Kd (Aβ1–42 fibrils) was 1.58 ± 0.05 nM, the “labeling of Aβ plaques in frontal lobe tissue sections” value (Aβ plaques; 2 μM, person with AD) was “strikingly distinct labeling of Aβ plaques” and the “staining of diffuse plaques” value (Aβ plaques; AD frontal lobe sections) was “labeling of numerous diffuse Aβ plaques”.
